ChEMBL document CHEMBL5512619, “Anticancer mechanism of coumarin-based derivatives” (Eur J Med Chem, 2024)

Tests used:
MDA-MB-231 = experiment: Antiproliferative activity against human MDA-MB-231 cells incubated 24 hrs by MTT assay; format: functional, cell-based; details: MDA-MB-231, 24 h
A549 = experiment: Antiproliferative activity against human A549 cells incubated 24 hrs by MTT assay; format: functional, cell-based; details: A549, 24 h
SK-MEL-2 = experiment: Antiproliferative activity against human SK-MEL-2 cells assessed as inhibition of cell growth after 72 hrs by MTT assay; format: functional, cell-based; details: SK-MEL-2, 72 h
[1] = Antiproliferative activity against human Lu1 cells assessed as inhibition of cell growth after 72 hrs by MTT assay; format: functional, cell-based; details: Lu1, 72 h
HeLa [2] = experiment: Antiproliferative activity against human HeLa cells assessed as inhibition of cell growth after 72 hrs by MTT assay; format: functional, cell-based
MCF7 = experiment: Antiproliferative activity against human MCF7 cells assessed as inhibition of cell growth after 72 hrs by MTT assay; format: functional, cell-based; details: MCF7, 72 h
HepG2 [3] = experiment: Antiproliferative activity against human HepG2 cells assessed as inhibition of cell growth after 72 hrs by MTT assay; format: functional, cell-based; details: HepG2, 72 h
HeLa [4] = experiment: Cytotoxicity against human HeLa cells; format: functional, cell-based
[5] = Cytotoxicity against human Lu1 cells; format: functional, cell-based
HepG2 [6] = experiment: Cytotoxicity against human HepG2 cells; format: functional, cell-based
Carbonic anhydrase 1 = Carbonic anhydrase 1 (Homo sapiens, UniProt P00915); experiment: Binding affinity to human CA1 assessed as inhibition constant incubated for 10 mins by phenol red dye based stopped flow CO2 hydration assay
Sequence of Carbonic anhydrase 1 (P00915 whole entry): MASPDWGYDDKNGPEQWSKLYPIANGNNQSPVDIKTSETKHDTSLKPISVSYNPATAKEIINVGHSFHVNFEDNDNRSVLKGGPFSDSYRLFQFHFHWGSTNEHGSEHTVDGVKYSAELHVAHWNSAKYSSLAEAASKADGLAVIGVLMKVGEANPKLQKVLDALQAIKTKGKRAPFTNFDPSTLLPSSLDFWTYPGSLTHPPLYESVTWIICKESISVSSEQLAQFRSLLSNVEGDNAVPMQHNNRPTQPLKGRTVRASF

Carbonic anhydrase 2 = Carbonic anhydrase 2 (Homo sapiens, UniProt P00918); experiment: Binding affinity to human CA2 assessed as inhibition constant incubated for 10 mins by phenol red dye based stopped flow CO2 hydration assay
[7] = biological target: Epidermal growth factor receptor (Homo sapiens, UniProt P00533); experiment: Inhibition of EGFR (unknown origin)
Sequence of Epidermal growth factor receptor (P00533 whole entry): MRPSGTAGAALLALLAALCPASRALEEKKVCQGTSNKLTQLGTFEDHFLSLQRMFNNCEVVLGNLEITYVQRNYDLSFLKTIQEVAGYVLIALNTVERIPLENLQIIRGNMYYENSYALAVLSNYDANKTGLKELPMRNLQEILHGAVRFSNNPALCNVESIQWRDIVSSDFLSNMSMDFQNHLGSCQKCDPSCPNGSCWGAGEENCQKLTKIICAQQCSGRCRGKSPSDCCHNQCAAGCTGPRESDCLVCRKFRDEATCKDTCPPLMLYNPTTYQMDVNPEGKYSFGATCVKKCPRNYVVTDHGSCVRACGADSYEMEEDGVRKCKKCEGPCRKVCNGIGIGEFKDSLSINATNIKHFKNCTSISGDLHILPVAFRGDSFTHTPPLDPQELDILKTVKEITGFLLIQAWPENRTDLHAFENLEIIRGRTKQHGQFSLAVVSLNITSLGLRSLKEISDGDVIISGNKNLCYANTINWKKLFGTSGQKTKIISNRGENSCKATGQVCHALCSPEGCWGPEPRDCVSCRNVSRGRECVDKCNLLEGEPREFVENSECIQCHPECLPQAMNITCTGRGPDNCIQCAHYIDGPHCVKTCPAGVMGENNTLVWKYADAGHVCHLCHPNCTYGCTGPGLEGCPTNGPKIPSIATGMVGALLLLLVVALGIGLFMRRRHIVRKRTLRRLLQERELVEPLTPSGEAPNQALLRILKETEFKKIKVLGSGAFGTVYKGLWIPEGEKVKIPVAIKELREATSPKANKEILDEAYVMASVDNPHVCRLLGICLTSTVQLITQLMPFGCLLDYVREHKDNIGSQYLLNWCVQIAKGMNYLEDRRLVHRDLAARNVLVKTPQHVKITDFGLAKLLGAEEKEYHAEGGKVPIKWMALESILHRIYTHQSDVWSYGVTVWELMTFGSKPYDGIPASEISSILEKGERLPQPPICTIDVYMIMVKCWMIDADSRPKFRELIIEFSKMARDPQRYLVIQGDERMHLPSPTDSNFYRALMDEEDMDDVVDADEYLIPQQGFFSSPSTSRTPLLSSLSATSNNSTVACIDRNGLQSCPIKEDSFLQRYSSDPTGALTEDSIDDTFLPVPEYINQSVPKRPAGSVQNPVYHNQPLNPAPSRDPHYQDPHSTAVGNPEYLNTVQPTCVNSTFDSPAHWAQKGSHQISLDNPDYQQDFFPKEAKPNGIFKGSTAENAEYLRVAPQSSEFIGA

[8] = biological target: Receptor tyrosine-protein kinase erbB-2 (Homo sapiens, UniProt P04626); experiment: Inhibition of HER2 (unknown origin)
Sequence of Receptor tyrosine-protein kinase erbB-2 (P04626 whole entry): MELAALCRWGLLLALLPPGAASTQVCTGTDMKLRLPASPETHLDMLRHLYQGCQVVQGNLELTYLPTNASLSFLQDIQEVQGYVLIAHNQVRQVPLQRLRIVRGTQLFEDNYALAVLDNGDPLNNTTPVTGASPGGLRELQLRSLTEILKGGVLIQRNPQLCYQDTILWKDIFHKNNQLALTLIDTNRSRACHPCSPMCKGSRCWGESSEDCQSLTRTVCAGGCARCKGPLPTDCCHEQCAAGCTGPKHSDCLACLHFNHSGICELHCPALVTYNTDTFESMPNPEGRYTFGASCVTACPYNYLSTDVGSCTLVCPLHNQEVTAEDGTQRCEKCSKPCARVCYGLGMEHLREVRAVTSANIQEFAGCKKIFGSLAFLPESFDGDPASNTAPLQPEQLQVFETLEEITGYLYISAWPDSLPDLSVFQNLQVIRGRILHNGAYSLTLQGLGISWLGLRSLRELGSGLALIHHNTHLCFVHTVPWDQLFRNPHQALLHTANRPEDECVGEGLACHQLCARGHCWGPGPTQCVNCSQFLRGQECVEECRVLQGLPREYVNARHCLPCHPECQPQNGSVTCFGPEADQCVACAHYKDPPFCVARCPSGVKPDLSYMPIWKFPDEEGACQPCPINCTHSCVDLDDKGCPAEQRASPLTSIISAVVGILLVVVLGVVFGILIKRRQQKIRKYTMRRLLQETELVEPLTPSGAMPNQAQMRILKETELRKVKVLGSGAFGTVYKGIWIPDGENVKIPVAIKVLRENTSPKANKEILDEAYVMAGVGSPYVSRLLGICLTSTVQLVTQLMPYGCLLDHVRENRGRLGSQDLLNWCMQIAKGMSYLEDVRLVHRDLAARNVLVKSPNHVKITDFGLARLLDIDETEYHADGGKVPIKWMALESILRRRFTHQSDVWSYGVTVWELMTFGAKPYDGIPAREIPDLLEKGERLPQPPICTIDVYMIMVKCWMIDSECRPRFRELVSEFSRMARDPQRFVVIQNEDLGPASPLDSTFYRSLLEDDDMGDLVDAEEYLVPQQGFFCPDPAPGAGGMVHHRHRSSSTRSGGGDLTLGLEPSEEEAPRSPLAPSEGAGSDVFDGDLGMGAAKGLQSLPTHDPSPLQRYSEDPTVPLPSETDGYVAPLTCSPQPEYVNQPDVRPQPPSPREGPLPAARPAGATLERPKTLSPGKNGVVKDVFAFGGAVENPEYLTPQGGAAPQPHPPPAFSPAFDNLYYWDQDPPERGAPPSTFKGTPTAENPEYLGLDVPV

[9] = Cytotoxicity against human Lu1 cells incubated for 72 hrs by MTT assay; format: functional, cell-based; details: Lu1, 72 h
HeLa [10] = experiment: Cytotoxicity against human HeLa cells incubated for 72 hrs by MTT assay; format: functional, cell-based
HepG2 [11] = experiment: Cytotoxicity against human HepG2 cells incubated for 72 hrs by MTT assay; format: functional, cell-based; details: HepG2, 72 h

SMILES: COc1ccccc1-c1cc(-c2cc3ccccc3oc2=O)nc(Cc2ccc(F)cc2)n1
- IC50 (MDA-MB-231): < 10000 nM
- IC50 (A549): < 10000 nM

SMILES: O=c1oc2ccccc2cc1-c1cc(-c2cccc(Cl)c2)nc(Cc2ccc(F)cc2)n1
- IC50 (MDA-MB-231): < 10000 nM
- IC50 (A549): < 10000 nM

SMILES: O=c1oc2ccccc2cc1-c1cc(-c2ccccc2Br)nc(Cc2ccc(F)cc2)n1
- IC50 (MDA-MB-231): < 10000 nM
- IC50 (A549): < 10000 nM

SMILES: O=c1oc2ccccc2cc1-c1cc(-c2ccccc2Cl)nc(Cc2ccc(F)cc2)n1
- IC50 (MDA-MB-231): < 10000 nM
- IC50 (A549): < 10000 nM

SMILES: Cc1ccccc1-c1cc(-c2cc3ccccc3oc2=O)nc(Cc2ccc(F)cc2)n1
- IC50 (MDA-MB-231): < 10000 nM
- IC50 (A549): < 10000 nM

SMILES: Cc1cccc(-c2cc(-c3cc4ccccc4oc3=O)nc(Cc3ccc(F)cc3)n2)c1
- IC50 (MDA-MB-231): < 10000 nM
- IC50 (A549): < 10000 nM

SMILES: COc1ccc(-c2cc(-c3cc4ccccc4oc3=O)nc(Cc3ccc(F)cc3)n2)cc1
- IC50 (MDA-MB-231): < 10000 nM
- IC50 (A549): < 10000 nM

SMILES: Cc1ccc(-c2cc(-c3cc4ccccc4oc3=O)nc(Cc3ccc(F)cc3)n2)cc1
- IC50 (MDA-MB-231): < 10000 nM
- IC50 (A549): < 10000 nM

SMILES: O=c1oc2ccccc2cc1-c1cc(-c2cccc(Br)c2)nc(Cc2ccc(F)cc2)n1
- IC50 (MDA-MB-231): < 10000 nM
- IC50 (A549): < 10000 nM

SMILES: O=c1oc2ccccc2cc1-c1cc(-c2ccc(Br)cc2)nc(Cc2ccc(F)cc2)n1
- IC50 (MDA-MB-231): < 10000 nM
- IC50 (A549): < 10000 nM

SMILES: O=c1oc2ccccc2cc1-c1cc(-c2ccc(Cl)cc2)nc(Cc2ccc(F)cc2)n1
- IC50 (MDA-MB-231): < 10000 nM
- IC50 (A549): < 10000 nM

SMILES: COc1cccc(-c2cc(-c3cc4ccccc4oc3=O)nc(Cc3ccc(F)cc3)n2)c1
- IC50 (MDA-MB-231): < 10000 nM
- IC50 (A549): < 10000 nM

SMILES: CC(=O)OC[C@H]1O[C@@H](NC(=S)N/N=C(\C)c2cc3ccccc3oc2=O)[C@H](OC(C)=O)[C@@H](OC(C)=O)[C@H]1OC(C)=O
- IC50 (SK-MEL-2): 1280 nM
- IC50 [1]: 1280 nM
- IC50 (HeLa [2]): 1280 nM
- IC50 (MCF7): 1280 nM
- IC50 (HepG2 [3]): 1280 nM

SMILES: CC(=O)OC[C@H]1O[C@@H](n2c(-c3ccccc3)cs/c2=N\N=C(/C)c2cc3cc(Cl)ccc3oc2=O)[C@H](OC(C)=O)[C@@H](OC(C)=O)[C@H]1OC(C)=O
- IC50 (HeLa [4]): 1180 nM
- IC50 [5]: 1180 nM
- IC50 (HepG2 [6]): 1180 nM

SMILES: CC(=O)OC[C@H]1O[C@@H](n2c(-c3ccccc3)cs/c2=N\N=C(/C)c2cc3cc(Br)ccc3oc2=O)[C@H](OC(C)=O)[C@@H](OC(C)=O)[C@H]1OC(C)=O
- IC50 (HeLa [4]): 1180 nM
- IC50 [5]: 1180 nM
- IC50 (HepG2 [6]): 1180 nM

SMILES: C[C@@H]1CN(S(=O)(=O)c2cccc(C(=O)Nc3ccc4c(c3)C=CS(=O)(=O)O4)c2)C[C@H](C)O1
- Ki (Carbonic anhydrase 1): 99.4 nM
- Ki (Carbonic anhydrase 2): 99.4 nM

SMILES: CC(=O)OC[C@H]1O[C@@H](n2c(-c3ccccc3)cs/c2=N\N=C\c2cc(=O)oc3ccc(OCC(C)C)cc23)[C@H](OC(C)=O)[C@@H](OC(C)=O)[C@@H]1OC(C)=O
- IC50 (HeLa [4]): 1180 nM
- IC50 [5]: 1180 nM
- IC50 [7]: 150 nM
- IC50 (HepG2 [6]): 1180 nM
- IC50 [8]: 150 nM

SMILES: CC(=O)OC[C@H]1O[C@@H](NC(=S)N/N=C(\C)c2c(O)c3ccccc3oc2=O)[C@H](OC(C)=O)[C@@H](OC(C)=O)[C@H]1OC(C)=O
- IC50 (SK-MEL-2): 1280 nM
- IC50 [1]: 1280 nM
- IC50 (HeLa [2]): 1280 nM
- IC50 (MCF7): 1280 nM
- IC50 (HepG2 [3]): 1280 nM

SMILES: O=C(Nc1ccc2c(c1)C=CS(=O)(=O)O2)c1cccc(S(=O)(=O)N2CCOCC2)c1
- Ki (Carbonic anhydrase 1): 99.4 nM
- Ki (Carbonic anhydrase 2): 99.4 nM

SMILES: O=C(Nc1ccc2c(c1)C=CS(=O)(=O)O2)c1cccc(S(=O)(=O)N2CCCC2)c1
- Ki (Carbonic anhydrase 1): 99.4 nM
- Ki (Carbonic anhydrase 2): 99.4 nM

SMILES: Cc1ccc(C(=O)Nc2ccc3c(c2)C=CS(=O)(=O)O3)cc1S(=O)(=O)N1CCCCC1
- Ki (Carbonic anhydrase 1): 99.4 nM
- Ki (Carbonic anhydrase 2): 99.4 nM

SMILES: CCCCCOc1ccc2oc(=O)cc(C3SC(N(C(C)=O)[C@@H]4O[C@H](COC(C)=O)[C@@H](OC(C)=O)[C@H](OC(C)=O)[C@H]4OC(C)=O)=NN3C(C)=O)c2c1 (stereo partly drawn)
- IC50 [9]: 1180 nM
- IC50 [7]: 220 nM
- IC50 (HeLa [10]): 1180 nM
- IC50 [8]: 130 nM
- IC50 (HepG2 [11]): 1180 nM

SMILES: COc1cccc2cc(/C(C)=N/NC(=S)N[C@@H]3O[C@H](COC(C)=O)[C@H](OC(C)=O)[C@H](OC(C)=O)[C@H]3OC(C)=O)c(=O)oc12
- IC50 (SK-MEL-2): 1280 nM
- IC50 [1]: 1280 nM
- IC50 (HeLa [2]): 1280 nM
- IC50 (MCF7): 1280 nM
- IC50 (HepG2 [3]): 1280 nM
